Patent publication US9907762B2, “Stabilized mutant opsin proteins” (University of Washington, priority 2003, dated 2018)
Entries after “also recorded” stand apart in the source; their conditions may differ.

Assays:
wild-type opsin [1] = target: T1, wild-type opsin (Bos taurus, UniProt P02699); assay: Thermostability of pigments; assay type: biochemical; settings: incubation at either 4° C. or 37° C.
T1 construct: expressed in transfected cells

wild-type opsin [2] = target: T1, wild-type opsin; assay: Photosensitivity studies; assay type: biochemical
wild-type opsin [3] = target: T1, wild-type opsin; assay: Immunocytochemistry, localization in HEK293 cells; assay type: cell-based; settings: immunofluorescence
Method: HEK293 cells expressing wild-type rhodopsin or P23H-opsin under a tetracycline-inducible promoter were cultured in Dulbecco's modified Eagle's medium (Invitrogen). The cells were attached to glass bottom microwell dishes (MatTek Corp.) with Cell-Tak (Becton Dickinson Labware). Expression of opsin or P23H-opsin was induced by the addition of 1 μg/ml tetracycline as recommended by the manufacturer's protocol (Invitrogen). The cells were treated with 50 μM 11-cis-7-ring retinal 2 hours after induction. The cells were harvested after 24 hours and fixed with 4% paraformaldehyde (Fisher) in PBS (136 mM NaCl, 11.4 mM sodium phosphate, pH 7.4) for 10 minutes and washed by PBS. To block nonspecific labeling, the cells were incubated in 1.5% normal goat serum (Vector Lab., Inc.) in PBST (136 mM NaCl, 11.4 mM sodium phosphate, 0.1% Triton X-100, pH 7.4) for 15 minutes at room temperature. The cells were incubated overnight at 4° C. in purified 1D4 antibody diluted with PBST. The sections were rinsed in PBST and incubated with indocarbocyanine (Cy3)-conjugated goat anti-mouse IgG (Jackson ImmunoResearch Lab., Inc.) and Hoechst 33342 dye (Molecular Probes). […] For confocal imaging, the cells were analyzed on a Zeiss LSM510 laser scanning microscope (Carl Zeiss, Inc.).

P23H-opsin [4] = target: T2, P23H-opsin (Bos taurus, UniProt P02699, P23H); assay: Pigment regeneration, retinals added to harvested cells/cell membranes; assay type: biochemical; settings: retinal added after the cells were harvested
T2 construct: expressed in transfected cells
From the text: (§1) For the construction and selection of tetracycline-inducible opsin cell lines, an Invitrogen T-REx™ system was used. Briefly, nucleic acids encoding wild-type opsin and the P23H mutant were excised as EcoRI-NotI fragments from pMT4 and then cloned into the EcoRI-NotI site within the polylinker of pcDNA4. Using opsin-specific forward and reverse primers, the entire gene was sequenced for verification. These plasmids were then separately transfected by calcium-phosphate precipitation into T-REx™-293 cells that already stably expressed the tetracycline repressor; these cells were routinely grown under blasticidin selection. After transfection, zeocin was added to the culture medium, and surviving colonies of cells were isolated and subsequently expanded into larger 6-well plates. Each of these clones was exposed to tetracycline, and 48 hours after induction, the cells were harvested and solubilized with 1% DM. Separately, uninduced cells were also solubilized. The samples were run on SDS-PAGE and immunoblotted with the monoclonal antibody 1D4. Cell lines were chosen on the basis of production of the least amount of opsin (i.e., nondetectable opsin levels on immunoblots) in the absence of tetracycline and moderate amounts of opsin in the presence of the drug. HEK293 cells were grown in Dulbecco's modified Eagle's medium containing high glucose (Invitrogen) at 37° C. in the presence of 5.0% CO2. In all of the studies, the cells were harvested after 48 hours of induction with tetracycline (1 μg/ml).
(§2) The cells were washed three times with PBS, harvested, and incubated with different analogs of 11-cis-retinal (50 μM) for 45 minutes at 4° C. The cells were then lysed with 1.0% n-dodecyl-maltoside (DM) (Anatrace) in the presence of protease inhibitors (complete protease inhibitor mixture tablets; Roche Molecular Biochemicals) and centrifuged at 36,000 rpm in a Beckman ultracentrifuge for 30 minutes at 4° C. The supernatant was incubated with 1D4-coupled CNBr-activated Sepharose 4B (Pharmacia Corp.) beads overnight. The beads were then washed three times with PBS containing 0.1% DM. Bound pigments were eluted off the beads using 0.1 mM synthetic peptide (last 9 amino acid residues of the C terminus of rhodopsin) in 0.1% DM. In studies when retinoids (50 μM) were added during biosynthesis, a Me2SO solution of retinoids (10 μl of 100 mM) was added directly to the cell culture medium after 2 and 24 hours of induction. The cells were harvested at 48 hours and lysed with 1.0% DM. Pigment was purified by immunoaffinity chromatography. The UV-visible spectra of the eluted pigment samples were then recorded on a Perkin Elmer Lambda 800 UV-visible spectrophotometer in the range of 250-650 nm.

wild-type opsin [5] = target: T1, wild-type opsin; assay: as above; assay type: biochemical; settings: retinal 50 μM added to harvested cells, 45 minutes at 4° C.
From the text: as §1, §2

wild-type opsin [6] = target: T1, wild-type opsin; assay: Pigment formation, retinals added to cell culture medium during opsin biosynthesis; assay type: cell-based; settings: for pigment formation with wild-type opsin: retinal 50 μM added during biosynthesis; for absorbance max of the pigment formed with wild-type opsin: retinal added during biosynthesis, immunoaffinity purified
From the text: as §1, §2

P23H-opsin [7] = target: T2, P23H-opsin; assay: as above; assay type: cell-based; settings: for pigment formation / rescue of folding of P23H-opsin: retinal 50 μM added during biosynthesis; for absorbance max of the pigment formed with P23H-opsin: retinal added during biosynthesis, immunoaffinity purified
P23H-opsin [8] = target: T2, P23H-opsin; assay: Glycosylation status by immunoblotting; assay type: cell-based; settings: retinal added during biosynthesis, immunoblot
Method: The samples were loaded on 10% SDS-polyacrylamide gels and transferred to Immobilon-NC membrane (Millipore) according to established protocols. The membranes were blocked with blocking buffer (Licor) for 1 hour and incubated at room temperature with 1D4 antibody (1:1000) for 1 hour. […] The membranes were then washed with PBS containing Tween 20 and scanned using an Odyssey Infrared imager (Licor).
The samples were incubated at 37° C. for 16 hours and then loaded onto a 10% polyacrylamide gel. The immunoblots were developed as described above.

P23H-opsin [9] = target: T2, P23H-opsin; assay: Retinoid analysis of the bound chromophore (HPLC, spectrophotometry); assay type: binding
Method: (§3) The mixture was kept at room temperature for 30 min, and then 400 μl of MeOH and 400 μl of hexane were added. The mixture was shaken on a vortex for 5 minutes and centrifuged at 14,000 rpm to separate layers. The hexane layer was collected. Another 400 μl of hexane was added to the aqueous layer, and extraction was repeated. Combined hexane layers were dried down and redissolved in 120 μl of hexane, and 100 μl fractions were analyzed by normal phase HPLC as previously described.

wild-type opsin [10] = target: T1, wild-type opsin; assay: as above; assay type: binding
Method: as §3

P23H-opsin [11] = target: T2, P23H-opsin; assay: Immunocytochemistry, localization in HEK293 cells; assay type: cell-based; settings: immunofluorescence
Method: HEK293 cells expressing wild-type rhodopsin or P23H-opsin under a tetracycline-inducible promoter were cultured in Dulbecco's modified Eagle's medium (Invitrogen). The cells were attached to glass bottom microwell dishes (MatTek Corp.) with Cell-Tak (Becton Dickinson Labware). Expression of opsin or P23H-opsin was induced by the addition of 1 μg/ml tetracycline as recommended by the manufacturer's protocol (Invitrogen). […] The cells were harvested after 24 hours and fixed with 4% paraformaldehyde (Fisher) in PBS (136 mM NaCl, 11.4 mM sodium phosphate, pH 7.4) for 10 minutes and washed by PBS. To block nonspecific labeling, the cells were incubated in 1.5% normal goat serum (Vector Lab., Inc.) in PBST (136 mM NaCl, 11.4 mM sodium phosphate, 0.1% Triton X-100, pH 7.4) for 15 minutes at room temperature. The cells were incubated overnight at 4° C. in purified 1D4 antibody diluted with PBST. The sections were rinsed in PBST and incubated with indocarbocyanine (Cy3)-conjugated goat anti-mouse IgG (Jackson ImmunoResearch Lab., Inc.) and Hoechst 33342 dye (Molecular Probes). The cells were rinsed in PBST and mounted in 50 μl of 2% 1,4-diazabicyclo-[2.2.2]octane (Sigma) in 90% glycerol to retard photobleaching. For confocal imaging, the cells were analyzed on a Zeiss LSM510 laser scanning microscope (Carl Zeiss, Inc.).

[12] = cell membranes, after photobleaching
[13] = mixture of the four 7-ring retinal isomers added during biosynthesis

In the case of “7-rhodopsin: rhodopsin (wild-type opsin) regenerated with 11-cis-7-ring retinal”, the “temperature stability of purified pigment” value (wild-type opsin [1]) is reported as “no change in the amount of chromophore”, the “stability to light in cell membranes” value (wild-type opsin [2]; HEK293 cell membranes, 20 minutes light) is reported as “not bleached by light” and the “stability to light, purified in detergent” value (wild-type opsin [2]; purified pigment in detergent) is reported as “stable to light”. For the same compound, the “cellular localization of wild-type opsin pigment” value (wild-type opsin [3]) was “found predominantly at the plasma membrane”.

In the case of 11-cis-6-ring retinal, the “pigment formation with P23H-opsin in cell membranes” value (from here on “pigment formation with P23H-opsin”) (P23H-opsin [4]) is reported as “only a small amount of pigment was formed”, the “regeneration of wild-type rhodopsin in cell membranes” value (from here on “regeneration of wild-type rhodopsin”) (wild-type opsin [5]) is reported as “regeneration” and the “pigment formation with wild-type opsin” value (wild-type opsin [6]) is reported as “recombined with wild-type opsin”. For the same compound, the “pigment formation / rescue of folding of P23H-opsin” value (P23H-opsin [7]) was “No significant pigment; also recorded: lack of activity”.

11-cis-7-ring retinal was tested, and the “pigment formation with P23H-opsin” value (P23H-opsin [4]) was “only a small amount of pigment was formed”, the “regeneration of wild-type rhodopsin” value (wild-type opsin [5]) was “regeneration” and the “pigment formation with wild-type opsin” value (wild-type opsin [6]) was “recombined with wild-type opsin”. The “absorbance max of the pigment formed with wild-type opsin” value (wild-type opsin [6]) was “approximately 500±3 nm”, the “pigment formation / rescue of folding of P23H-opsin” value (P23H-opsin [7]) was “significant amounts of pigment” and the “absorbance max of the pigment formed with P23H-opsin” value (P23H-opsin [7]) was “approximately 490±3 nm”. For the same compound, the “fraction of P23H-opsin folded to form pigment (rescued)” value (P23H-opsin [7]; selective elution of folded form, 10 mM phosphate, pH 6.0, spectra and immunoblots) was “approximately 80%”, the “glycosylation of P23H-opsin” value (P23H-opsin [8]) was “Golgi-associated glycosylation pattern similar to the wild-type protein” and the “substitution of bound chromophore by added 11-cis-retinal” value (P23H-opsin [9]; [12]) was “did not lead to its substitution”. The “isomer bound by P23H-opsin” value (P23H-opsin [9]; [13]) was “selectively bound”, the “substitution of bound chromophore by added 11-cis-retinal” value (wild-type opsin [10]; [12]) was “did not lead to its substitution” and the “isomer bound by wild-type opsin” value (wild-type opsin [10]; [13]) was “selectively bound”.

For 11-cis-9-demethyl-7-ring retinal, the “pigment formation / rescue of folding of P23H-opsin” value (P23H-opsin [7]) was “ineffective in pigment formation” and the “pigment formation / rescue of folding of P23H-opsin” value (P23H-opsin [7]; listed as 11-cis-9-demethyl-ring retinal) was “lack of activity”.

With `CC1=C(/C=C/C(C)=C\C=C\C(C)=C\C=O)C(C)(C)CCC1` [9-cis-retinal] the “cellular localization of P23H-opsin” value (P23H-opsin [11]) was “promoted transport of P23H-opsin to the cell surface”.

With `CC1=C(/C=C/C(C)=C/C=C/C(C)=C/C=O)C(C)(C)CCC1` [11-cis-retinal] the “pigment formation with P23H-opsin” value (P23H-opsin [4]) was “only a small amount of pigment was formed”, the “regeneration of wild-type rhodopsin” value (wild-type opsin [5]) was “regeneration” and the “pigment formation with wild-type opsin” value (wild-type opsin [6]) was “regeneration”. The “absorbance max of the pigment formed with wild-type opsin” value (wild-type opsin [6]) was 499 nm, the “pigment formation / rescue of folding of P23H-opsin” value (P23H-opsin [7]) was “induce the in vivo folding and stabilization of P23H-opsin” and the “absorbance max of the pigment formed with P23H-opsin” value (P23H-opsin [7]) was 492 nm. The “glycosylation of P23H-opsin” value (P23H-opsin [8]) was “acquired a mature state of glycosylation”.
